# Where two headings read alike, the source gives them in different places.
# Key:
# [1] = system: carrageenan-induced edema; assay: Carrageenan-induced edema inhibiting effect of betamethasone valerate ointment; format: in vivo; conditions: rat paw, 0.15 part betamethasone valerate, 9.85 parts enhancer, vs gel ointment base
# Method: The carrageenan-induced edema inhibiting effect of the ointment was examined in accordance with the method of E. Passarella [Arzneim, Forsch. 30 (I), No. 4, pages 647-651 (1980)]. Specifically, 0.1 ml of a 1% carrageenan suspension in 0.9% NaCl solution was injected into the tip of the right paw of each rat (body weight 150-175 g). The volume of the paw was measured before the administation of carrageenan and 3, 5 and 6 hours after the carrageenan administration by a mercury displacement device. The ointment was well rubbed into the inflamed site in an amount of 100 mg.
# These ointments were applied to the tip of the paw, and their edema inhibiting effects were examined.
# The percent edema inhibitions were calculated on the basis of the edema formation ratio of a rat to which only the gel ointment base was administered.
# serum calcium level [2] = assay: Serum calcium after intrarectal (Asu^1.7)-eel calcitonin suppository in rats; format: in vivo; conditions: rat, 0.7 MRC unit calcitonin, 7 parts enhancer
# Method: (Asu^1.7)-eel calcitonin was gradually added and mixed with the mixture to form a uniform composition. The composition was slightly warmed, and filled into a suppository container to form a suppository for rats having a diameter of about 3 mm and a length of about 8 mm. This suppository contained 0.7 MRC unit of calcitonin. The suppository was intrarectally administered to a rat, and the concentration of calcium in the blood serum after administration was measured by using a calcium measuring kit (made by Iatoron Co.).
# For comparison, suppositories (Comparisons 76 to 87) composed of 93 parts of cacao butter, 7 parts of the various pyroglutamates shown in Table 6 and caltitonin and a suppository composed only of cacao butter and caltitonin (Comparison 88) were prepared. They wre individually administered intrarectally to rats, and the calcium concentration in the serum was measured.
# blood glucose level = assay: Blood glucose after intrarectal hog insulin gelatin capsular suppository in rabbits; format: in vivo; conditions: rabbit, 9.6 units insulin, 10 parts enhancer
# Method: Fractionated coconut oil (90 parts) and 10 parts of each of the various pyroglutamates indicated in Table 7 were uniformly mixed, and then hog insulin was gradually added to form a uniform dispersion. The dispersion was filled in a gelatin capsule for suppositoes to form a gelatin capsular suppository. The suppository contained 9.6 units of insulin. The suppository was intrarectally administered to a rabbit and the blood glucose level after administration was measured by the glucose oxidase method.
# For comparison, suppositories composed of 90 parts of fractionated coconut oil, 10 parts of the various pyroglutamates indicated in Table 7 (Comparisons 89 to 102) and insulin, and a suppository composed only of fractionated coconut oil and insulin (Comparison 103) were prepared, and tested in the same way as above.
# serum calcium level [3] = format: in vivo; conditions: rabbit, nasal, 15 units/50 microliters calcitonin, 10 parts enhancer
# Method: This nasal drop contained 15 units/50 microliters of calcitonin. The nasal drop in a dose of 50 microliters was administered to the nasal cavity of a New Zealand rabbit (clean). The calcium concentration in the serum after administration was measured by using a calcium measuring kit (Iatoron Co.).
# They were individually administered to the nasal cavity of a rabbit, and the concentration of calcium in the serum was measured.
# [4] = dog, in vivo
# Method: Cacao butter (80 parts), 10 parts of each of the pyroglumtamates indicated in Table 8, and 10 parts of cephalothin sodium were uniformly mixed and then slightly warmed. The mixture was filled in a suppository container to form a suppository containing 1 g of the mixture. The suppository was administered intrarectally to a Beagle dog, and the concentration of cephalothin sodium in the blood after administration was measured by the cup method.
# These suppositories were individually administered intrarectally to Beagle dogs, and the concentration of cephalothin sodium in the blood was measured.
compound,measurement,setting,value
"CC(C)=CCCC(C)CCOC(=O)[C@@H]1CCC(=O)N1 (stereo partly drawn) [Compound (224), Citronyl L-pyroglutamate]",Edema inhibition,[1]; 3 hrs.,19.5%
same,Edema inhibition,[1]; 6 hrs.,38.8%
same,Edema inhibition,[1]; 9 hrs.,38.5%
same,Percent decrease of the serum calcium level from that before administration,serum calcium level [2]; 1 hr.,29.2%
same,Percent decrease of the serum calcium level from that before administration,serum calcium level [2]; 2 hrs.,26.7%
same,Percent decrease of the serum calcium level from that before administration,serum calcium level [2]; 3 hrs.,11.4%
same,Percent decrease of the serum calcium level from that before administration,serum calcium level [2]; 5 hrs.,0.9%
same,Percent decrease of the blood glucose level from that before administration,blood glucose level; 30 min.,29.2%
same,Percent decrease of the blood glucose level from that before administration,blood glucose level; 1 hr.,32.1%
same,Percent decrease of the blood glucose level from that before administration,blood glucose level; 2 hrs.,18.5%
same,Percent decrease of the blood glucose level from that before administration,blood glucose level; 3 hrs.,3.1%
same,Percent decrease of the serum calcium level from that before administration,serum calcium level [3]; 1 hr.,9.0%
same,Percent decrease of the serum calcium level from that before administration,serum calcium level [3]; 2 hrs.,6.3%
same,Percent decrease of the serum calcium level from that before administration,serum calcium level [3]; 3 hrs.,2.2%
same,Percent decrease of the serum calcium level from that before administration,serum calcium level [3]; 5 hrs.,0.6%
same,Concentration of cephalothin sodium in the blood,[4]; 60 min,300 ng/mL
same,Concentration of cephalothin sodium in the blood,[4]; 180 min,400 ng/mL
same,Concentration of cephalothin sodium in the blood,[4]; 300 min,300 ng/mL

# Source: patent US4789667A, “External pharmaceutical composition and methods of use” (priority 1984, dated 1988)
